One compound from article PMC9791335 (Heliyon, 2022) can be followed below.

The structures appear in SMILES notation.

The target of this test is lysine-specific demethylase 1 (LSD1) (Homo sapiens, UniProt O60341). The test can be described thus: HRP-coupled fluorescence. Type of test: biochemical.

Turning to `COc1cc(CNC(=O)CCCCCCC(C)C)ccc1O` [DHC, dihydrocapsaicin], the “% inhibition at 10 μM” value was 76.5.
